In patent US20150210641A1, “NOVEL CYTOCHROME P450 INHIBITORS AND THEIR METHOD OF USE” (CORTENDO AB (PUBL), priority 2014, published 2015) one finds IC50 data, which are given here for 13 compounds.

Assay type in all cases: cell-based
For assay [1], the target named is T1, recombinant CYP-17 (Homo sapiens, UniProt P05093).
T1 construct: expressed in transfected cells
T1 sequence (P05093 1-508): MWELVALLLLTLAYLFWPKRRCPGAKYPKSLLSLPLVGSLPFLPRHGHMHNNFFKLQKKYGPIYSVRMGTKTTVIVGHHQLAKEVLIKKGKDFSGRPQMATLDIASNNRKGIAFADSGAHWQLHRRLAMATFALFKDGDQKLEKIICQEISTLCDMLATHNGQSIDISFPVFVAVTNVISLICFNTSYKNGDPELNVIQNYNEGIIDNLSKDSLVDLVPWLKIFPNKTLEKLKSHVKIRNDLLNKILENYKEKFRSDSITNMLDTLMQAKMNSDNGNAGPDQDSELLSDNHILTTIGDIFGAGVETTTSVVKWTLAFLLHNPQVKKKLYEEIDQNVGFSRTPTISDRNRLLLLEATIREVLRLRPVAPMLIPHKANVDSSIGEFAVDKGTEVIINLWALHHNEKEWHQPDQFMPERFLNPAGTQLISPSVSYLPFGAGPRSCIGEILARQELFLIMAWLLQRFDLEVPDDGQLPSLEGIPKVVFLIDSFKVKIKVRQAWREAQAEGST
The assay can be described thus: Cyp17 assay: 3H-acetic acid release from [21-3H] 17α-hydroxyl-Pregnenolone in AD293 cells. To be noted: AD293 cells stably over-expressing recombinant CYP-17; eight concentrations 10 μM to 4.5 nM. As for the experimental part: Cyp17 assay protocol: AD293 cells that stably over-express recombinant CYP-17 were seeded in 96 well plates coated with poly D-lysine (15,000 cell per well) and incubated at 37° C. for 24 hours in Dulbecco's Modified Eagle Medium (DMEM) with Fetal Bovine Serum (FBS) that is stripped of hormones by charcoal treatment. The media is then removed, the cells are washed once with Phosphate buffer saline solution, and 50 μL Dulbecco's Modified Eagle Medium (DMEM) with Fetal Bovine Serum (FBS) that is stripped of hormones by charcoal treatment is added. Compounds of the disclosure are then added to the wells in eight concentration spanning 10 μM to 4.5 nM, and the plates are incubated for an additional 60 minutes at 37° C. [21-^3H] 17α-hydroxyl-Pregnenolone is then added (50 nCi per well, 31.25 nM) and the plates are incubated for an additional 4 hours at 37° C. The media is then collected, 200 μL of chloroform is added, and the mixture is shaken for 1 hour. The aqueous layer is then separated and analyzed for the presence of ^3H-acetic acid using a Perkin Elmer Topcount NXT to determine IC50s of the compounds of the disclosure.

The target of assay [2] is T2, recombinant CYP-11 (Homo sapiens, UniProt P15538).
T2 construct: expressed in transfected cells
T2 sequence (P15538 25-503): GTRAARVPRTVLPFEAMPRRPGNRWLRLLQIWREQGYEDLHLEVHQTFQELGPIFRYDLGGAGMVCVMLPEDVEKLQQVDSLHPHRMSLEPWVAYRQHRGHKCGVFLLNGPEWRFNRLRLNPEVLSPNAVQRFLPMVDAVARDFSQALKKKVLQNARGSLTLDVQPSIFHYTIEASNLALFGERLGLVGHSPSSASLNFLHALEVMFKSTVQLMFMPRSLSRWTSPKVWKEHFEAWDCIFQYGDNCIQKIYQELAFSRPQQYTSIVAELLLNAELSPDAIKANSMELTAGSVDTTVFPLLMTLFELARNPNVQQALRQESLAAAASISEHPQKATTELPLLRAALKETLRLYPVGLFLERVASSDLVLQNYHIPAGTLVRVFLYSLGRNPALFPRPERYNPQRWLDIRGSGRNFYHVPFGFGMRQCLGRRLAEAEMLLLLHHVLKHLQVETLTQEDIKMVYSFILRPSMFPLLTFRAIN
The experiment in a line: Cyp11 assay: cortisol formation from 11-deoxycortisol in AD293 cells, LC/MS. To be noted: AD293 cells stably over-expressing recombinant CYP-11; eight concentrations 10 μM to 4.5 nM. How it is done:
Cyp11 assay protocol: AD293 cells that stably over-express recombinant CYP-11 were seeded in 96 well plates coated with poly D-lysine (15,000 cell per well) and incubated at 37° C. for 24 hours in Dulbecco's Modified Eagle Medium (DMEM) with Fetal Bovine Serum (FBS) that is stripped of hormones by charcoal treatment. The media is then removed, the cells are washed once with Phosphate buffer saline solution, and 50 μL Dulbecco's Modified Eagle Medium (DMEM) with Fetal Bovine Serum (FBS) that is stripped of hormones by charcoal treatment is added. Compounds of the disclosure are then added to the wells in eight concentration spanning 10 μM to 4.5 nM, and the plates are incubated for an additional 60 minutes at 37° C. 11-deoxycortisol is then added ([…]) and the plates are incubated for an additional 12 hours at 37° C. After incubation, 50 uL of the supernatant (medium) is transferred into a fresh plate and 150 uL of an acetonitrile solution containing 200 ng/ml of Telmisartan is added. The sample is mixed and then placed in a centrifuge at 2000 rpm for 5 minutes. 100 uL of the supernatant is transferred into a fresh 96 well deep well plate, 100 uL of 1:1 methanol: water was added, the solution was mixed and then analyzed by LC/MS for the presence of cortisol using an Agilent 1200 RRLC/ABSCIEX API4000 LC-MS or Shimadzu Prominance/ABSCIEX API4000 LC-MS to determine IC50s of the compounds of the disclosure.

For assay [3], the target named is T3, recombinant CYP-21 (Homo sapiens, UniProt P08686).
T3 construct: expressed in transfected cells
T3 sequence (P08686 1-495): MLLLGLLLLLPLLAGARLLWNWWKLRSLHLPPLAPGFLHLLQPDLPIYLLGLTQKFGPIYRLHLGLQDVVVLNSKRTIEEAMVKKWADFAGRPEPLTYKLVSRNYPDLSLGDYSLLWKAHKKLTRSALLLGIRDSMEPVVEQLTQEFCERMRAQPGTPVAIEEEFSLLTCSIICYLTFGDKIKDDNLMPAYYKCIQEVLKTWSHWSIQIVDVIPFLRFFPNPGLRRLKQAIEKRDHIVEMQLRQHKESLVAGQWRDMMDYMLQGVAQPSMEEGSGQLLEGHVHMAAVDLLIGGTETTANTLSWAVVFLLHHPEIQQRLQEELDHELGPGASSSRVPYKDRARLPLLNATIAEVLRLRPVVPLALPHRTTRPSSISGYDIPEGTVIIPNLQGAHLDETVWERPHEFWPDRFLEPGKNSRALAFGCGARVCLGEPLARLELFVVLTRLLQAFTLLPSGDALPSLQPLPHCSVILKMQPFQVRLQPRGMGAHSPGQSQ
The experiment in a line: Cyp21 assay: 11-deoxycortisol formation from 17-OH Progesterone in AD293 cells, LC/MS. To be noted: AD293 cells stably over-expressing recombinant CYP-21; eight concentrations 10 μM to 4.5 nM. As for the experimental part: Cyp21 assay protocol: AD293 cells that stably over-express recombinant CYP-21 were seeded in 96 well plates coated with poly D-lysine (10,000 cell per well) and incubated at 37° C. for 24 hours in Dulbecco's Modified Eagle Medium (DMEM) with Fetal Bovine Serum (FBS) that is stripped of hormones by charcoal treatment. The media is then removed, the cells are washed once with Phosphate buffer saline solution, and 50 μL Dulbecco's Modified Eagle Medium (DMEM) with Fetal Bovine Serum (FBS) that is stripped of hormones by charcoal treatment is added. Compounds of the disclosure are then added to the wells in eight concentration spanning 10 μM to 4.5 nM, and the plates are incubated for an additional 60 minutes at 37° C. 17-OH Progesterone is then added ([…]) and the plates are incubated for an additional 45 minutes at 37° C. After incubation, 50 uL of the supernatant (medium) is transferred into a fresh plate and 150 uL of an acetonitrile solution containing 200 ng/ml of Telmisartan is added. The sample is mixed and then placed in a centrifuge at 2000 rpm for 5 minutes.

For `COc1cc(F)ccc1-c1ccc(C(NCCN)c2ccncc2)cc1` (stereo not drawn) [Entry 26, N1-((4′-fluoro-2′-methoxy-[1,1′-biphenyl]-4-yl)(pyridin-4-yl)methyl)ethane-1,2-diamine], the IC50 is 0.12 µM in assay [1], at least 10 µM in assay [2] and at least 10 µM in assay [3].

With `COc1cc(F)ccc1-c1ccc(C(c2ccncc2)N2CCCCC2)cc1` (stereo not drawn) [Entry 18, 4-((4′-fluoro-2′-methoxy-[1,1′-biphenyl]-4-yl)(piperidin-1-yl)methyl)pyridine], the figures for the IC50 in assay [1], in assay [2] and in assay [3] were 0.77 µM, at least 10 µM and at least 10 µM, respectively.

Consider `COc1cccc(-c2ccc(C(c3ccncc3)N3CCCCC3)cc2)c1` (stereo not drawn) [Entry 31, 4-((3′-methoxy-[1,1′-biphenyl]-4-yl)(piperidin-1-yl)methyl)pyridine], for which the IC50 was 0.027 µM in assay [1], at least 10 µM in assay [2] and 2.4 µM in assay [3].

Consider `COc1cccc(-c2ccc(C(c3ccncc3)N3CCNCC3)cc2)c1` (stereo not drawn) [Entry 32, 1-((3′-methoxy-[1,1′-biphenyl]-4-yl)(pyridin-4-yl)methyl)piperazine], for which the IC50 in assay [1] is 1.17 µM; in assay [2], at least 10 µM; in assay [3] it was at least 10 µM.

As for `COc1cc(F)ccc1-c1ccc(C(c2ccncc2)N2CCN(c3ccccc3C#N)CC2)cc1` (stereo not drawn) [Entry 24, 2-(4-((4′-fluoro-2′-methoxy-[1,1′-biphenyl]-4-yl)(pyridin-4-yl)methyl)piperazin-1-yl)benzonitrile], the IC50 was 0.192 µM in assay [1], at least 10 µM in assay [2] and at least 10 µM in assay [3].

With `COc1cc(F)ccc1-c1ccc(C2(c3ccncc3)OCC(C)(C)CO2)cc1` [Entry 6, 4-[2-(4′-Fluoro-2′-methoxy-biphenyl-4-yl)-5,5-dimethyl-[1,3]dioxan-2-yl]-pyridine], the IC50 in assay [1] was 0.6 µM; in assay [2], at least 10 µM; in assay [3], 2.2 µM.

`COc1cc(F)ccc1-c1ccc(C(c2ccncc2)N2CCN(c3ccccc3)CC2)cc1` (stereo not drawn) [Entry 22, 1-((4′-fluoro-2′-methoxy-[1,1′-biphenyl]-4-yl)(pyridin-4-yl)methyl)-4-phenylpiperazine]: the IC50 in assay [1] was 0.18 µM; in assay [2], at least 10 µM; in assay [3], at least 10 µM.

For `COc1cc(F)ccc1-c1ccc(C(c2ccncc2)N2CCCC2)cc1` (stereo not drawn) [Entry 19, 4-((4′-fluoro-2′-methoxy-[1,1′-biphenyl]-4-yl)(pyrrolidin-1-yl)methyl)pyridine], the IC50 in assay [1] was 0.254 µM; in assay [2] it was at least 10 µM; in assay [3] it was at least 10 µM.

Take `COc1cc(F)ccc1-c1ccc(C(c2ccncc2)N2CCNCC2)cc1` (stereo not drawn) [Entry 30, 1-((4′-fluoro-2′-methoxy-[1,1′-biphenyl]-4-yl)(pyridin-4-yl)methyl)piperazine]: the IC50 was 1 µM in assay [1], at least 10 µM in assay [2] and at least 10 µM in assay [3].

On to `COc1cc(F)ccc1-c1ccc(C(F)c2ccncc2)cc1` (stereo not drawn) [Entry 1, 4-[Fluoro-(4′-fluoro-2′-methoxy-biphenyl-4-yl)-methyl]-pyridine], for which the IC50 in assay [1] was 0.22 µM; in assay [2] it was at least 10 µM; in assay [3], 1.5 µM.

Turning to `COc1ccc(-c2ccc(C3(c4ccncc4)OCCO3)cc2)cc1OC` [Entry 16, 4-[2-(3′,4′-dimethoxy-biphenyl-4-yl)-[1,3]dioxolan-2-yl]-pyridine], the IC50 in assay [1] is 0.023 µM; in assay [2], 1.4 µM; in assay [3], 0.565 µM.

For the compound `COc1cc(F)ccc1-c1ccc(C(c2ccncc2)N2CCN(c3ccccn3)CC2)cc1` (stereo not drawn) [Entry 23, 1-((4′-fluoro-2′-methoxy-[1,1′-biphenyl]-4-yl)(pyridin-4-yl)methyl)-4-(pyridin-2-yl)piperazine], the results for the IC50 in assay [1], in assay [2] and in assay [3] were 0.043 µM, at least 10 µM and at least 10 µM, respectively.

`COc1ccc(-c2ccc(C(F)c3ccncc3)cc2)cc1OC` (stereo not drawn) [Entry 7]: the IC50 is 0.014 µM in assay [1], at least 10 µM in assay [2] and 0.94 µM in assay [3].
